Experimental data as given in patent US20260062422A1 (Halda Therapeutics OpCo, Inc., priority 2022, published 2026).

Columns and labels:
[1] = tested on: T-Rex 293 cell line SC3 cells lacking increased expression of androgen receptor protein; assay: Cellular growth inhibition, T-Rex 293 SC3 cells without doxycycline, CellTiter-Glo; type: cell-based; conditions: T-Rex 293 SC3 cells not exposed to doxycycline, CellTiter-Glo 2.0
How it was run: (§1)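 Cells of clone SC3 are seeded in charcoal-dextran-stripped serum medium with or without 10 ng/mL doxycycline to induce wild-type androgen receptor. After 24 h, serial compound dilutions are added at 0.5% DMSO and incubated 72 h at 37 °C. CellTiter-Glo 2.0 measures viability, giving GI50 values.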

[2] = tested on: T-Rex 293 cell line SC3 cells having increased expression of androgen receptor protein due to exposure to doxycycline; assay: Cellular growth inhibition, T-Rex 293 SC3 cells with doxycycline (androgen receptor induced), CellTiter-Glo; type: cell-based; conditions: T-Rex 293 SC3 cells with 10 ng/mL doxycycline (increased androgen receptor expression)
How it was run: as §1

T47D cells = assay: Cellular growth inhibition assay for T47D cells, CellTiter-Glo; type: cell-based, human; conditions: 72 hours treatment, CellTiter-Glo 2.0 cell viability
How it was run: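 Growth inhibition as GI50, fitted with four parameters to CellTiter-Glo luminescence after 72 h of compound exposure (0.5% DMSO). Cells were T47D, grown in insulin-supplemented (0.2 units/mL) DMEM with 10% FBS and treated one day post-seeding.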

Cc1sc2c(c1C)C(c1ccc(Cl)cc1)=N[C@@H](CC(=O)NCCOCCOCCOCCOCCOC1CCN(c3ncc(C(=O)N[C@H]4C(C)(C)[C@H](Oc5ccc(C#N)c(Cl)c5)C4(C)C)cn3)CC1)c1nnc(C)n1-2 [Compound I-8]
GI50 ([1]; 72 h): 1.5 to 3 µM | GI50 ([2]; 72 h): < 0.5 µM | GI50 (T47D cells; Homo sapiens, T47D, 72 h): 0.5 to 1.5 µM

Cc1sc2c(c1C)C(c1ccc(Cl)cc1)=N[C@@H](CC(=O)NCCCCCOC1CCN(c3ncc(C(=O)N[C@H]4C(C)(C)[C@H](Oc5ccc(C#N)c(Cl)c5)C4(C)C)cn3)CC1)c1nnc(C)n1-2 [Compound I-22, N-((1r,3r)-3-(3-chloro-4-cyanophenoxy)-2,2,4,4-tetramethylcyclobutyl)-2-(4-((5-(2-((S)-4-(4-chlorophenyl)-2,3,9-trimethyl-6H-thieno[3,2-A][1,2,4]triazolo[4,3-a][1,4]diazepin-6-yl)acetamido)pentyl)oxy)piperidin-1-yl)pyrimidine-5-carboxamide]
GI50 ([1]; 72 hours): > 3 µM | GI50 ([2]; 72 hours): < 0.5 µM

Cc1sc2c(c1C)C(c1ccc(Cl)cc1)=N[C@@H](CC(=O)NCCCCOCCOC1CCN(c3ncc(C(=O)N[C@H]4C(C)(C)[C@H](Oc5ccc(C#N)c(Cl)c5)C4(C)C)cn3)CC1)c1nnc(C)n1-2 [Compound I-28]
GI50 ([1]; 72 h): 0.5 to 1.5 µM | GI50 ([2]; 72 h): < 0.5 µM

Cc1sc2c(c1C)C(c1ccc(Cl)cc1)=N[C@@H](CC(=O)NCCCCCCCOC1CCN(c3ncc(C(=O)N[C@H]4C(C)(C)[C@H](Oc5ccc(C#N)c(Cl)c5)C4(C)C)cn3)CC1)c1nnc(C)n1-2 [Compound I-24]
GI50 ([1]; 72 h): > 3 µM | GI50 ([2]; 72 h): < 0.5 µM

Cc1sc2c(c1C)C(c1cccc(OCCOCCOC3CCN(c4ncc(C(=O)N[C@H]5C(C)(C)[C@H](Oc6ccc(C#N)c(Cl)c6)C5(C)C)cn4)CC3)c1)=N[C@@H](CC(=O)O)c1nnc(C)n1-2 [Compound I-42]
GI50 ([1]; 72 h): > 3 µM | GI50 ([2]; 72 h): 0.5 to 1.5 µM

Cc1sc2c(c1C)C(c1cccc(OCCOCCOCCOC3CCN(c4ncc(C(=O)N[C@H]5C(C)(C)[C@H](Oc6ccc(C#N)c(Cl)c6)C5(C)C)cn4)CC3)c1)=N[C@@H](CC(=O)O)c1nnc(C)n1-2 [Compound I-43]
GI50 ([1]; 72 h): > 3 µM | GI50 ([2]; 72 h): > 3 µM

CCNC(=O)C[C@@H]1N=C(c2cccc(OCCOCCOC3CCN(c4ncc(C(=O)N[C@H]5C(C)(C)[C@H](Oc6ccc(C#N)c(Cl)c6)C5(C)C)cn4)CC3)c2)c2c(sc(C)c2C)-n2c(C)nnc21 [Compound I-47, N-((1r,3r)-3-(3-chloro-4-cyanophenoxy)-2,2,4,4-tetramethylcyclobutyl)-2-(4-(2-(2-(3-((S)-6-(2-(ethylamino)-2-oxoethyl)-2,3,9-trimethyl-6H-thieno[3,2-f][1,2,4]triazolo[4,3-a][1,4]diazepin-4-yl)phenoxy)ethoxy)ethoxy)piperidin-1-yl)pyrimidine-5-carboxamide]
GI50 ([1]; 72 h): 0.5 to 1.5 µM | GI50 ([2]; 72 h): < 0.5 µM

Cc1sc2c(c1C)C(c1ccc(Cl)cc1)=N[C@@H](CC(=O)NCCCN1CCN(CCCN(C)c3ncc(C(=O)N[C@H]4C(C)(C)[C@H](Oc5ccc(C#N)c(Cl)c5)C4(C)C)cn3)CC1)c1nnc(C)n1-2 [Compound I-5, N-((1r,3r)-3-(3-chloro-4-cyanophenoxy)-2,2,4,4-tetramethylcyclobutyl)-2-((3-(4-(3-(2-((S)-4-(4-chlorophenyl)-2,3,9-trimethyl-6H-thieno[3,2-f][1,2,4]triazolo[4,3-a][1,4]diazepin-6-yl)acetamido)propyl)piperazin-1-yl)propyl)(methyl)amino)pyrimidine-5-carboxamide]
GI50 ([1]; 72 h): > 3 µM | GI50 ([2]; 72 h): < 0.5 µM

Cc1sc2c(c1C)C(c1ccc(Cl)cc1)=N[C@@H](CC(=O)NCCOCCOCCOCCOCCN(C)c1ncc(C(=O)N[C@H]3C(C)(C)[C@H](Oc4ccc(C#N)c(Cl)c4)C3(C)C)cn1)c1nnc(C)n1-2 [Compound I-3, N-((1r,3r)-3-(3-chloro-4-cyanophenoxy)-2,2,4,4-tetramethylcyclobutyl)-2-((1-((S)-4-(4-chlorophenyl)-2,3,9-trimethyl-6H-thieno[3,2-f][1,2,4]triazolo[4,3-a][1,4]diazepin-6-yl)-2-oxo-6,9,12,15-tetraoxa-3-azaheptadecan-17-yl)(methyl)amino)pyrimidine-5-carboxamide]
GI50 ([1]; 72 h): > 3 µM | GI50 ([2]; 72 h): < 0.5 µM

CCNC(=O)C[C@@H]1N=C(c2ccc(N3CCC(N(C)C4CCN(c5ncc(C(=O)N[C@H]6C(C)(C)[C@H](Oc7ccc(C#N)c(Cl)c7)C6(C)C)cn5)CC4)CC3)cc2)c2c(sc(C)c2C)-n2c(C)nnc21 [Compound I-113]
GI50 ([1]; 72 h): 1.5 to 3 µM | GI50 ([2]; 72 h): < 0.5 µM

CCNC(=O)C[C@@H]1N=C(c2cccc(OCCOCCOCCOC3CCN(c4ncc(C(=O)N[C@H]5C(C)(C)[C@H](Oc6ccc(C#N)c(Cl)c6)C5(C)C)cn4)CC3)c2)c2c(sc(C)c2C)-n2c(C)nnc21 [Compound I-48, N-((1r,3r)-3-(3-chloro-4-cyanophenoxy)-2,2,4,4-tetramethylcyclobutyl)-2-(4-(2-(2-(2-(3-((S)-6-(2-(ethylamino)-2-oxoethyl)-2,3,9-trimethyl-6H-thieno[3,2-f][1,2,4]triazolo[4,3-a][1,4]diazepin-4-yl)phenoxy)ethoxy)ethoxy)ethoxy)piperidin-1-yl)pyrimidine-5-carboxamide]
GI50 ([1]; 72 h): 0.5 to 1.5 µM | GI50 ([2]; 72 h): < 0.5 µM

Cc1sc2c(c1C)C(c1ccc(CC3CC4(CCN(c5ncc(C(=O)N[C@H]6C(C)(C)[C@H](Oc7ccc(C#N)c(Cl)c7)C6(C)C)cn5)CC4)C3)cc1)=N[C@@H](C)c1nnc(C)n1-2 [Compound I-303]
GI50 (T47D cells): < 0.5 µM

Cc1sc2c(c1C)C(c1ccc(Cl)cc1)=N[C@H](CC(=O)NCCOCCOCCOCCOC1CCN(c3ncc(C(=O)N[C@H]4C(C)(C)[C@H](Oc5ccc(C#N)c(Cl)c5)C4(C)C)cn3)CC1)c1nnc(C)n1-2 [Compound I-13]
GI50 ([1]; 72 h): > 3 µM | GI50 ([2]; 72 h): > 3 µM

CCNC(=O)C[C@@H]1N=C(c2ccc(OCCOCCOCCOC3CCN(c4ncc(C(=O)N[C@H]5C(C)(C)[C@H](Oc6ccc(C#N)c(Cl)c6)C5(C)C)cn4)CC3)cc2)c2c(sc(C)c2C)-n2c(C)nnc21 [Compound I-45, N-((1r,3r)-3-(3-chloro-4-cyanophenoxy)-2,2,4,4-tetramethylcyclobutyl)-2-(4-(2-(2-(2-(4-((S)-6-(2-(ethylamino)-2-oxoethyl)-2,3,9-trimethyl-6H-thieno[3,2-f][1,2,4]triazolo[4,3-a][1,4]diazepin-4-yl)phenoxy)ethoxy)ethoxy)ethoxy)piperidin-1-yl)pyrimidine-5-carboxamide]
GI50 ([1]; 72 h): 0.5 to 1.5 µM | GI50 ([2]; 72 h): < 0.5 µM

CCNC(=O)C[C@@H]1N=C(c2ccc(N3CCC(OC4CCN(c5ncc(C(=O)N[C@H]6C(C)(C)[C@H](Oc7ccc(C#N)c(Cl)c7)C6(C)C)cn5)CC4)CC3)cc2)c2c(sc(C)c2C)-n2c(C)nnc21 [Compound I-114]
GI50 ([1]; 72 h): 0.5 to 1.5 µM | GI50 ([2]; 72 h): < 0.5 µM

Cc1sc2c(c1C)C(c1ccc(Cl)cc1)=N[C@H](CC(=O)NCCOCCOCCOCCOCCOCCOCCOC1CCN(c3ncc(C(=O)N[C@H]4C(C)(C)[C@H](Oc5ccc(C#N)c(Cl)c5)C4(C)C)cn3)CC1)c1nnc(C)n1-2 [Compound I-9]
GI50 ([1]; 72 h): 1.5 to 3 µM | GI50 ([2]; 72 h): < 0.5 µM

Cc1sc2c(c1C)C(c1ccc(OCCOCCOC3CCN(c4ncc(C(=O)N[C@H]5C(C)(C)[C@H](Oc6ccc(C#N)c(Cl)c6)C5(C)C)cn4)CC3)cc1)=N[C@@H](CC(=O)O)c1nnc(C)n1-2 [Compound I-39]
GI50 ([1]; 72 h): > 3 µM | GI50 ([2]; 72 h): 0.5 to 1.5 µM

Cc1sc2c(c1C)C(c1ccc(Cl)cc1)=N[C@@H](CC(=O)NCCOCCOCCOCC1CN(c3ncc(C(=O)N[C@H]4C(C)(C)[C@H](Oc5ccc(C#N)c(Cl)c5)C4(C)C)cn3)C1)c1nnc(C)n1-2 [Compound I-18]
GI50 ([1]; 72 h): 1.5 to 3 µM | GI50 ([2]; 72 h): 0.5 to 1.5 µM

Cc1sc2c(c1C)C(c1ccc(Cl)cc1)=N[C@H](CC(=O)NCCOCCOCCOCCOCCN(C)c1ncc(C(=O)N[C@H]3C(C)(C)[C@H](Oc4ccc(C#N)c(Cl)c4)C3(C)C)cn1)c1nnc(C)n1-2 [Compound I-19]
GI50 ([1]; 72 h): > 3 µM | GI50 ([2]; 72 h): > 3 µM

Cc1sc2c(c1C)C(c1ccc(Cl)cc1)=N[C@@H](CC(=O)NCCOC1CCN(c3ncc(C(=O)N[C@H]4C(C)(C)[C@H](Oc5ccc(C#N)c(Cl)c5)C4(C)C)cn3)CC1)c1nnc(C)n1-2 [Compound I-6]
GI50 ([1]; 72 h): 0.5 to 1.5 µM | GI50 ([2]; 72 h): < 0.5 µM

Cc1sc2c(c1C)C(c1ccc(Cl)cc1)=N[C@@H](CC(=O)NCCOCCOCCOCCOC1CCN(c3ncc(C(=O)N[C@H]4C(C)(C)[C@H](Oc5ccc(C#N)c(Cl)c5)C4(C)C)cn3)CC1)c1nnc(C)n1-2 [Compound I-11]
GI50 ([1]; 72 h): 1.5 to 3 µM | GI50 ([2]; 72 h): < 0.5 µM

Cc1sc2c(c1C)C(c1ccc(OCCOCCOCCOC3CCN(c4ncc(C(=O)N[C@H]5C(C)(C)[C@H](Oc6ccc(C#N)c(Cl)c6)C5(C)C)cn4)CC3)cc1)=N[C@@H](CC(=O)O)c1nnc(C)n1-2 [Compound I-40]
GI50 ([1]; 72 h): > 3 µM | GI50 ([2]; 72 h): > 3 µM

Cc1sc2c(c1C)C(c1ccc(Cl)cc1)=N[C@@H](CC(=O)NCCCN1CCN(CCCOC3CCN(c4ncc(C(=O)N[C@H]5C(C)(C)[C@H](Oc6ccc(C#N)c(Cl)c6)C5(C)C)cn4)CC3)CC1)c1nnc(C)n1-2 [Compound I-10]
GI50 ([1]; 72 h): 1.5 to 3 µM | GI50 ([2]; 72 h): < 0.5 µM

Cc1sc2c(c1C)C(c1ccc(Cl)cc1)=N[C@@H](CC(=O)NCCOCCOCCOCC1CCN(c3ncc(C(=O)N[C@H]4C(C)(C)[C@H](Oc5ccc(C#N)c(Cl)c5)C4(C)C)cn3)CC1)c1nnc(C)n1-2 [Compound I-17]
GI50 ([1]; 72 h): 0.5 to 1.5 µM | GI50 ([2]; 72 h): < 0.5 µM

Cc1sc2c(c1C)C(c1ccc(Cl)cc1)=N[C@@H](CC(=O)NCCOCCOCCOCCOCCOCCOCCN(C)c1ncc(C(=O)N[C@H]3C(C)(C)[C@H](Oc4ccc(C#N)c(Cl)c4)C3(C)C)cn1)c1nnc(C)n1-2 [Compound I-4]
GI50 ([1]; 72 h): > 3 µM | GI50 ([2]; 72 h): < 0.5 µM
